Assay results reported in patent US9540314B2, “N-cycloalkyl-N-[(cycloalkenylphenyl)methylene]-(thio) carboxamide derivatives” (BAYER INTELLECTUAL PROPERTY GMBH, priority 2012, dated 2017).

How the values were obtained:
Puccinia recondita = assay: In vivo preventive test on Puccinia recondita (brown rust on wheat); conditions: 500 ppm of active ingredient; wheat plants, preventive spray; grading 12 days after contamination
Experimental: (§1) The active ingredients tested are prepared by homogenization in a mixture of acetone/tween/DMSO, and then diluted with water to obtain the desired active material concentration.
(§2) Wheat plants (“Scipion” variety), sown in starter cups on a 50/50 peat soil pozzolana substrate and grown at 22° C., are treated at the 1 leaf stage (10 cm height) by spraying with the active ingredient prepared as described above. Plants, used as controls, are treated with the mixture of acetone/tween/DMSO/water not containing the active material.
(§3) After 24 hours, the plants are contaminated by spraying the leaves with an aqueous suspension of Puccinia recondita spores (100 000 spores per mL). The spores are collected from an infected plant and are suspended in water containing 2.5 mL/L of Tween 80 at 10%. The contaminated wheat plants are incubated for 24 hours at 20° C. and at 100% relative humidity, and then for 10 days at 20° C. and at 70-80% relative humidity.
(§4) Grading (% of efficacy) is carried out 12 days after the contamination, in comparison with the control plants.
Under these conditions, good (at least 70%) to total protection is observed at a dose of 500 ppm of active ingredient with the following compounds from table I: […]

[1] = log P by HPLC on a reversed-phase column (C 18), EEC Directive 79/831 Annex V.A8; assay type: physicochemical; conditions: Table 1, HPLC C 18, 40° C., 0.1% aqueous formic acid and acetonitrile, several values = mixture of 2 or more isomers; for chromatographic logP: reversed-phase HPLC column (C 18)
Experimental: In table 1, the log P values were determined in accordance with EEC Directive 79/831 Annex V.A8 by HPLC (High Performance Liquid Chromatography) on a reversed-phase column (C 18), using the method described below:
Temperature: 40° C.; Mobile phases: 0.1% aqueous formic acid and acetonitrile; linear gradient from 10% acetonitrile to 90% acetonitrile.
Calibration was carried out using unbranched alkan-2-ones (comprising 3 to 16 carbon atoms) with known log P values (determination of the log P values by the retention times using linear interpolation between two successive alkanones). lambda-max-values were determined using UV-spectra from 200 nm to 400 nm and the peak values of the chromatographic signals.

Septoria tritici = assay: In vivo preventive test on Septoria tritici (wheat); conditions: 500 ppm of active ingredient; wheat plants, preventive spray; grading 24 days after contamination
Experimental: as §1, §2
After 24 hours, the plants are contaminated by spraying the leaves with an aqueous suspension of cryopreserved Septoria tritici spores (500 000 spores per mL). The contaminated wheat plants are incubated for 72 hours at 18° C. and at 100% relative humidity, and then for 21 days at 90% relative humidity.
Grading (% of efficacy) is carried out 24 days after the contamination, in comparison with the control plants.
Under these conditions, good (at least 70%) to total protection is observed at a dose of 500 ppm of active ingredient with the following compounds from table J: […]

Alternaria brassicae = assay: In vivo preventive test on Alternaria brassicae (leaf spot on radish); conditions: radish plants
Experimental: as §1
Radish plants (“Pernod Clair” variety), sown in starter cups on a 50/50 peat soil pozzolana substrate and grown at 17° C., are treated at the cotyledon stage by spraying with the active ingredient prepared as described above. Plants, used as controls, are treated with the mixture of acetone/tween/DMSO/water not containing the active material.
After 24 hours, the plants are contaminated by spraying the cotyledons with an aqueous suspension of Alternaria brassicae spores (50 000 spores per mL). The spores are collected from a 15-day-old culture.
The contaminated radish plants are incubated at 20° C. and at 100% relative humidity.
Grading (% of efficacy) is carried out 6 days after the contamination, in comparison with the control plants.
Under these conditions, high (at least 80%) to excellent (at least 90%) protection is observed at a dose of 500 ppm of active ingredient with the following compounds from table C1: […]

Sphaerotheca fuliginea = assay: In vivo preventive test on Sphaerotheca fuliginea (powdery mildew on cucurbits); conditions: 500 ppm, gherkin plants, grading 12 days after contamination
Experimental: (§5) The active ingredients tested are prepared by homogenization in a mixture of acetone/tween/DMSO and then diluted with water to obtain the desired active material concentration.
Gherkin plants (“Vert petit de Paris” variety), sown in starter cups on a 50/50 peat soil-pozzolana substrate and grown at 24° C., are treated at the Z11 cotyledon stage by spraying with the active ingredient prepared as described above. Plants, used as controls, are treated with the mixture of acetone/tween/DMSO/water not containing the active material.
After 24 hours, the plants are contaminated by spraying the cotyledons with an aqueous suspension of Sphaerotheca fuliginea spores (100 000 spores per mL). The spores are collected from infected plants. The contaminated gherkin plants are incubated at about 20° C. and at 70-80% relative humidity.
as §4
Under these conditions, good (at least 70%) to total protection is observed at a dose of 500 ppm of active ingredient with the following compounds from table A: […]

Pyrenophora teres = assay: In vivo preventive test on Pyrenophora teres (barley); conditions: barley plants, grading 14 days after contamination
Experimental: as §1
Barley plants (“Plaisant” variety), sown in starter cups on a 50/50 peat soil pozzolana substrate and grown at 22° C., are treated at the 1 leaf stage (10 cm height) by spraying with the active ingredient prepared as described above. Plants, used as controls, are treated with the mixture of acetone/tween/DMSO/water not containing the active material.
After 24 hours, the plants are contaminated by spraying the leaves with an aqueous suspension of Pyrenophora teres spores (12 000 spores per mL). The spores are collected from a 12-day-old culture.
The contaminated barley plants are incubated for 48 hours at 20° C. and at 100% relative humidity, and then for 12 days at 20° C. at 70-80% relative humidity.
Grading (% of efficacy) is carried out 14 days after the contamination, in comparison with the control plants.
Under these conditions, good (at least 70%) to total protection is observed at a dose of 500 ppm of active ingredient with the following compounds from table H1: […]

Botrytis cinerea = assay: In vivo preventive test on Botrytis cinerea (grey mould), gherkin plants; conditions: 500 ppm of active ingredient, preventive spray, grading 4 to 5 days after contamination
Experimental: as §5
Gherkin plants (“Vert petit de Paris” variety), sown in starter cups on a 50/50 peat soil pozzolana substrate and grown at 24° C., are treated at the Z11 cotyledon stage by spraying with the active ingredient prepared as described above. Plants, used as controls, are treated with the mixture of acetone/tween/DMSO/water not containing the active material.
After 24 hours, the plants are contaminated by spraying the cotyledons with an aqueous suspension of cryopreserved Botrytis cinerea spores (50 000 spores per mL). The spores are suspended in a nutrient solution composed of 10 g/L of PDB, 50 g/L of D-Fructose, 2 g/L of NH4NO3 and 1 g/L of KH2PO4. The contaminated gherkin plants are incubated at 17° C. and at 90% relative humidity.
Grading (% of efficacy) is carried out 4 to 5 days after the contamination, in comparison with the control plants.
Under these conditions, good (at least 70%) to total protection is observed at a dose of 500 ppm of active ingredient with the following compounds from table F: […]

Uromyces appendiculatus = assay: In vivo preventive test on Uromyces appendiculatus (bean rust); conditions: bean plants
Experimental: as §1
as §3, with “of Uromyces appendiculatus” for “of Puccinia recondita”, “spores (150” for “spores (100”, “from” for “from an”, “infected plants” for “infected plant”, “contaminated bean” for “contaminated wheat”
Grading (% of efficacy) is carried out 11 days after the contamination, in comparison with the control plants.

[2] = 500 ppm of active ingredient, preventive spray
[3] = 500 ppm of active ingredient, preventive spray, grading 11 days after contamination (table K1)
[4] = dose 100 ppm, comparison with saturated analogues (table K2)
[5] = dose 500 ppm, comparison with saturated analogues (table K2)

chromatographic logP [1] | SMILES | Efficacy (Puccinia recondita) | logP [1] | Efficacy (Septoria tritici) | Efficacy (Alternaria brassicae; Table C1, 500 ppm, grading 6 days after contamination) | Efficacy (Alternaria brassicae; Table C2, dose 100 ppm, 6 days after contamination) | Efficacy (Alternaria brassicae; Table C2, dose 100 ppm, 6 days after contamination, listed as 1.32) | Efficacy (Alternaria brassicae; Table C2, dose 500 ppm, 6 days after contamination) | Efficacy (Alternaria brassicae; Table C2, dose 500 ppm, 6 days after contamination, listed as 1.32) | Efficacy (Sphaerotheca fuliginea) | Efficacy (Pyrenophora teres; [2]) | Efficacy (Botrytis cinerea) | Efficacy (Uromyces appendiculatus; [3]) | Efficacy (Uromyces appendiculatus; [4]) | Efficacy (Uromyces appendiculatus; [5]) | Efficacy (Pyrenophora teres; Table H2, 100 ppm, preventive)
– | CC(c1ccccc1C1=CCCCC1)N(C(=O)c1c(C(F)F)nn(C)c1F)C1CC1 (racemic) [I.32] | 98% | 4.61 | 100% | 98% | 98% | at least 95% | 98% | at least 95% | 100% | 97% | – | – | – | – | –
– | CC1CC=C(c2ccc(Cl)cc2CN(C(=O)c2c(C(F)F)nn(C)c2F)C2CC2)CC1 (racemic) [I.46] | 75% | 5.36 | 86% | – | – | – | – | – | 100% | – | – | – | – | – | –
– | Cn1cc(C(=O)N(Cc2ccccc2C2=CCCC2)C2CC2)c(C(F)F)n1 [I.2] | 94% | 3.63 | 88% | – | – | – | – | – | 94% | – | 100% | 100% | – | – | –
– | Cn1nc(C(F)F)c(C(=O)N(Cc2ccccc2C2=CCCC2)C2CC2)c1F [I.3] | 98% | 4.06 | 98% | – | – | – | – | – | 100% | – | – | 100% | 99% | 100% | 86%
– | Cn1nc(C(F)F)c(C(=O)N(Cc2ccccc2C2=CCCC2)C2CC2)c1Cl [I.4] | 100% | 4.26 | – | – | – | – | – | – | – | – | 77% | 99% | – | – | –
– | Cn1nc(C(F)F)c(C(=O)N(Cc2cc(C3=CCCC3)ccc2C2=CCCC2)C2CC2)c1F [I.18] | – | 5.62 | – | – | – | – | – | – | – | – | 100% | – | – | – | –
4.34 | CC(c1cc(F)ccc1C1=CCCC1)N(C(=O)c1c(C(F)F)nn(C)c1F)C1CC1 (stereo not drawn) [I.25, N-{1-[2-(cyclopent-1-en-1-yl)-5-fluorophenyl]ethyl}-N-cyclopropyl-3-(difluoromethyl)-5-fluoro-1-methyl-1H-pyrazole-4-carboxamide] | – | – | 100% | – | – | – | – | – | 100% | 100% | 100% | – | – | – | –
– | Cn1cc(C(=O)N(Cc2ccccc2C2=CCCCC2)C2CC2)c(C(F)F)n1 [I.27] | 88% | 3.99 | 94% | – | – | – | – | – | 98% | – | 100% | 98% | 24% | 98% | –
– | Cn1nc(C(F)F)c(C(=O)N(Cc2ccccc2C2=CCCCC2)C2CC2)c1F [I.28] | 100% | 4.49 | 94% | – | – | – | – | – | 100% | 79% | 100% | 100% | 98% | 100% | –
– | Cn1cc(C(=O)N(Cc2ccccc2C2=CCCCC2)C2CC2)c(C(F)F)c1 [I.30] | – | 4.46 | – | – | – | – | – | – | 83% | – | 81% | 78% | – | – | –
– | O=C(c1ccsc1I)N(Cc1ccccc1C1=CCCCC1)C1CC1 [I.31] | – | 5.22 | – | – | – | – | – | – | – | – | 100% | – | – | – | –
– | Cn1nc(C(F)F)c(C(=S)N(Cc2cc(Cl)ccc2C2=CCCCC2)C2CC2)c1F [I.43] | 78% | 5.56 | 97% | – | – | – | – | – | 80% | 71% | – | 89% | – | – | –
4.69 | Cn1nc(C(F)F)c(C(=O)N(Cc2cc(F)ccc2C2=CCCCC2)C2CC2)c1Cl [I.44, 5-chloro-N-[2-(cyclohex-1-en-1-yl)-5-fluorobenzyl]-N-cyclopropyl-3-(difluoromethyl)-1-methyl-1H-pyrazole-4-carboxamide] | 81% | – | 79% | – | – | – | – | – | – | – | – | – | – | – | –
– | Cn1cc(C(=O)N(Cc2ccccc2C2=CCCCCC2)C2CC2)c(C(F)F)n1 [I.49] | 81% | 4.44 | 88% | – | – | – | – | – | 100% | 79% | 100% | 99% | – | – | –
– | Cn1cc(C(=O)N(Cc2ccccc2C2=CCCCCC2)C2CC2)c(C(F)F)c1 [I.50] | 81% | 4.93 | 100% | – | – | – | – | – | 100% | – | 98% | 99% | – | – | –
– | Cn1nc(C(F)F)c(C(=O)N(Cc2ccccc2C2=CCCCCC2)C2CC2)c1Cl [I.51] | 88% | 5.06 | 81% | – | – | – | – | – | 83% | – | – | 96% | – | – | –
– | Cn1nc(C(F)F)c(C(=O)N(Cc2ccccc2C2=CCCCCC2)C2CC2)c1F [I.53] | 98% | 4.85 | 100% | – | – | – | – | – | 100% | 79% | 100% | 100% | – | – | –
